Test systems include SN12C renal; KM12 colon; PC-3 prostate; NCI-H522 lung; NCI-H460 lung; OVCAR-8 ovarian; MDA-MB-231 breast; HCT-15 colon; NCI-H226 lung; MDA-MB-435.
Experiment in all cases: NCI tumour cell line growth inhibition, 48 h

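How tested: cells in 96-well plates exposed to compound for 48 hours at five concentrations. GI50: concentration for 50% inhibition of growth. Definition used: TGI = concentration required for complete inhibition of growth.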

For `Cc1cc(C)c2c(SCc3ccc(Cl)cc3Cl)nc(N)nc2n1`, the TGI was 60.7 µM with SN12C renal; above 100 µM with KM12 colon; above 100 µM in the test on PC-3 prostate; 57.1 µM in the test with NCI-H522 lung; 67.5 µM with NCI-H460 lung; above 100 µM with OVCAR-8 ovarian. Also, the TGI with MDA-MB-231 breast, with HCT-15 colon, in the test on NCI-H226 lung and in the test with MDA-MB-435 was above 100 µM each time.

Regarding `O=C(Nc1ccccc1O)c1ccc(CNC(=O)c2sccc2Nc2ccnc(C(F)(F)F)c2)cc1`, the GI50 is 13.7 µM with SN12C renal; 12.2 µM in the test with KM12 colon; 4.56 µM in the test with PC-3 prostate; 5.06 µM in the test on NCI-H522 lung; 5.19 µM with NCI-H460 lung; 3.44 µM with OVCAR-8 ovarian. For the same compound, the GI50 is 9.05 µM with MDA-MB-231 breast, 6.54 µM in the test on HCT-15 colon, 8.07 µM in the test with NCI-H226 lung and 4.09 µM in the test with MDA-MB-435. In addition, the TGI in the test on SN12C renal was found to be 55.1 µM; with KM12 colon it was 32 µM; in the test on PC-3 prostate it was 36.8 µM; with NCI-H522 lung, 27.7 µM; in the test with NCI-H460 lung, 21.4 µM; in the test on OVCAR-8 ovarian it was 41.2 µM. Moreover, the TGI worked out at 27.4 µM in the test on MDA-MB-231 breast, 26.8 µM in the test on HCT-15 colon, 45 µM in the test with NCI-H226 lung and 17.8 µM in the test on MDA-MB-435.

As for `CCCCCCC#CC#Cc1cccc(=O)o1`, the GI50 with SN12C renal is 1.31 µM; in the test with KM12 colon, 3.83 µM; with PC-3 prostate it was 2.67 µM; in the test on NCI-H522 lung, 1.8 µM; in the test on NCI-H460 lung, 8.14 µM; in the test on OVCAR-8 ovarian, 1.14 µM. The GI50 is 1.64 µM in the test on MDA-MB-231 breast, 1.67 µM with HCT-15 colon, 2.07 µM with NCI-H226 lung and 1.39 µM with MDA-MB-435. The TGI in the test with SN12C renal turned out to be 2.97 µM; in the test with KM12 colon, 14.3 µM; with PC-3 prostate, 8.36 µM; in the test with NCI-H522 lung, 27.8 µM; with NCI-H460 lung, 47.9 µM; with OVCAR-8 ovarian, 5.47 µM. For the same compound, the TGI was found to be 3.72 µM in the test with MDA-MB-231 breast, 3.64 µM in the test on HCT-15 colon, 4.7 µM with NCI-H226 lung and 3.28 µM in the test on MDA-MB-435.

Take `C[C@@H](Oc1ccc2[nH]nc(/C=C/c3cnn(CCO)c3)c2c1)c1c(Cl)cncc1Cl`: the GI50 in the test on SN12C renal is 0.121 µM; with KM12 colon it was below 0.01 µM; with PC-3 prostate, 1.41 µM; in the test with NCI-H522 lung, 0.572 µM; in the test on NCI-H460 lung, 0.0866 µM; in the test with OVCAR-8 ovarian, 0.329 µM. Also, the GI50 in the test with MDA-MB-231 breast is 0.357 µM; in the test with HCT-15 colon, 0.197 µM; with NCI-H226 lung, 0.0304 µM; with MDA-MB-435, 0.866 µM. In addition, the TGI is above 100 µM in the test with SN12C renal; 5.87 µM with KM12 colon; 7.4 µM with PC-3 prostate; 2.49 µM in the test on NCI-H522 lung; 1.62 µM in the test on NCI-H460 lung; above 32.1 µM in the test on OVCAR-8 ovarian. For the same compound, the TGI is above 26.5 µM with MDA-MB-231 breast, 8.38 µM in the test with HCT-15 colon and 3.12 µM in the test on MDA-MB-435.

Consider `CC(=O)c1cc2c(c3ccsc13)-c1ccccc1CC2`, for which the GI50 with SN12C renal was 34.7 µM; in the test with KM12 colon, 12.5 µM; in the test on PC-3 prostate it was 27.9 µM; with NCI-H522 lung it was 19.7 µM; with NCI-H460 lung it was 30.1 µM; in the test with OVCAR-8 ovarian, 53.1 µM. The GI50 is 16.4 µM in the test with MDA-MB-231 breast, 22.3 µM with HCT-15 colon, 38 µM in the test with NCI-H226 lung and 4.76 µM with MDA-MB-435. The TGI is above 100 µM with SN12C renal; 54.9 µM with KM12 colon; above 100 µM in the test on PC-3 prostate; 79.1 µM with NCI-H522 lung; above 100 µM with NCI-H460 lung; above 100 µM in the test on OVCAR-8 ovarian. The TGI with MDA-MB-231 breast was 67.1 µM; in the test on HCT-15 colon, above 100 µM; in the test on NCI-H226 lung, above 100 µM; in the test with MDA-MB-435 it was above 100 µM.

For `CC(C)(C)[Si](C)(C)OCC1C=CC(n2cnc3c(N)ncnc32)O1` (centres undefined), the TGI with SN12C renal, with KM12 colon, with PC-3 prostate, with NCI-H522 lung, with NCI-H460 lung and with OVCAR-8 ovarian was above 100 µM in each case. The TGI with MDA-MB-231 breast was above 73.6 µM; with HCT-15 colon, above 100 µM; in the test with NCI-H226 lung, above 69.6 µM; with MDA-MB-435, 57.1 µM.

These data come from PubChem BioAssay (NCI).
